From PubChem BioAssay AID1963978 (Molecular Pharmacology Branch, DTP, NCI, 2024)

System: 616215-338-R-J1-PDC spheroids with HUVEC/MSC, viability
Test: Anticancer human tumor 616215-338-R-J1-PDC patient-derived colon adenocarcinoma cell line growth inhibition [PI3K]
Settings: for IC50: curve of first compound; for viability, T/C: stronger effect = lower value
Method in brief: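 Tumor cells were combined with HUVEC and MSCs into spheroids, then dosed with PI3K-inhibitor combinations over half-log ranges capped near clinical Cmax or 10 microM.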

[1] = second compound 0.00316 µM, first compound 0.0316 µM
[2] = second compound 0.00316 µM, first compound 0.1 µM
[3] = second compound 0.00316 µM, first compound 0.316 µM
[4] = second compound 0.00316 µM, first compound 1 µM
[5] = second compound 0.00316 µM, first compound 3.16 µM
[6] = second compound 0.00316 µM, first compound 10 µM
[7] = second compound 0.01 µM, first compound 0.0316 µM
[8] = second compound 0.01 µM, first compound 0.1 µM
[9] = second compound 0.01 µM, first compound 0.316 µM
[10] = second compound 0.01 µM, first compound 1 µM
[11] = second compound 0.01 µM, first compound 3.16 µM
[12] = second compound 0.01 µM, first compound 10 µM
[13] = second compound 0.0316 µM, first compound 0.0316 µM
[14] = second compound 0.0316 µM, first compound 0.1 µM
[15] = second compound 0.0316 µM, first compound 0.316 µM
[16] = second compound 0.0316 µM, first compound 1 µM
[17] = second compound 0.0316 µM, first compound 3.16 µM
[18] = second compound 0.0316 µM, first compound 10 µM
[19] = second compound 0.1 µM, first compound 0.0316 µM
[20] = second compound 0.1 µM, first compound 0.1 µM
[21] = second compound 0.1 µM, first compound 0.316 µM
[22] = second compound 0.1 µM, first compound 1 µM
[23] = second compound 0.1 µM, first compound 3.16 µM
[24] = second compound 0.1 µM, first compound 10 µM
[25] = second compound 0.316 µM, first compound 0.0316 µM
[26] = second compound 0.316 µM, first compound 0.1 µM
[27] = second compound 0.316 µM, first compound 0.316 µM
[28] = second compound 0.316 µM, first compound 1 µM
[29] = second compound 0.316 µM, first compound 3.16 µM
[30] = second compound 0.316 µM, first compound 10 µM
[31] = second compound 1 µM, first compound 0.0316 µM
[32] = second compound 1 µM, first compound 0.1 µM
[33] = second compound 1 µM, first compound 0.316 µM
[34] = second compound 1 µM, first compound 1 µM
[35] = second compound 1 µM, first compound 3.16 µM
[36] = second compound 1 µM, first compound 10 µM
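Note: spheroids exposed to agents for seven days before the viability read.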

## C=CC(=O)N1CCN(c2nc(=O)n(-c3c(C)ccnc3C(C)C)c3nc(-c4c(O)cccc4F)c(F)cc23)C(C)C1 (stereo not given) + COc1c(OCCCN2CCOCC2)ccc2c3n(c(=NC(=O)c4cnc(N)nc4)nc12)CCN3
Second compound 0.00316 µM
  IC50: > 10 µM
Second compound 0.01 µM
  IC50: > 10 µM
Second compound 0.0316 µM
  IC50: > 10 µM
Second compound 0.1 µM
  IC50: > 10 µM
Second compound 0.316 µM
  IC50: < 0.0316 µM
Second compound 1 µM
  IC50: < 0.0316 µM
[1]
  viability, T/C: 90.8%
[2]
  viability, T/C: 87.9%
[3]
  viability, T/C: 92.2%
[4]
  viability, T/C: 96.6%
[5]
  viability, T/C: 95.2%
[6]
  viability, T/C: 80.1%
[7]
  viability, T/C: 110%
[8]
  viability, T/C: 92.2%
[9]
  viability, T/C: 97.8%
[10]
  viability, T/C: 101%
[11]
  viability, T/C: 111%
[12]
  viability, T/C: 78%
[13]
  viability, T/C: 106%
[14]
  viability, T/C: 85.9%
[15]
  viability, T/C: 99.5%
[16]
  viability, T/C: 110%
[17]
  viability, T/C: 87.8%
[18]
  viability, T/C: 76.2%
[19]
  viability, T/C: 91.7%
[20]
  viability, T/C: 96.8%
[21]
  viability, T/C: 93.4%
[22]
  viability, T/C: 98.9%
[23]
  viability, T/C: 90.2%
[24]
  viability, T/C: 71.7%
[25]
  viability, T/C: 52.7%
[26]
  viability, T/C: 36.7%
[27]
  viability, T/C: 46.1%
[28]
  viability, T/C: 47.1%
[29]
  viability, T/C: 47.1%
[30]
  viability, T/C: 36.6%
[31]
  viability, T/C: 23.4%
[32]
  viability, T/C: 23.2%
[33]
  viability, T/C: 29.8%
[34]
  viability, T/C: 24.4%
[35]
  viability, T/C: 25.4%
[36]
  viability, T/C: 21%

## CC(C)NCC(C(=O)N1CCN(c2ncnc3c2C(C)CC3O)CC1)c1ccc(Cl)cc1 (stereo not given) + COc1c(OCCCN2CCOCC2)ccc2c3n(c(=NC(=O)c4cnc(N)nc4)nc12)CCN3
Second compound 0.00316 µM
  IC50: 4.67 µM
Second compound 0.01 µM
  IC50: 4 µM
Second compound 0.0316 µM
  IC50: 2.56 µM
Second compound 0.1 µM
  IC50: 1.64 µM
Second compound 0.316 µM
  IC50: < 0.0316 µM
Second compound 1 µM
  IC50: < 0.0316 µM
[1]
  viability, T/C: 87.4%
[2]
  viability, T/C: 92.8%
[3]
  viability, T/C: 92.9%
[4]
  viability, T/C: 97%
[5]
  viability, T/C: 64.3%
[6]
  viability, T/C: 22.1%
[7]
  viability, T/C: 93.1%
[8]
  viability, T/C: 99.6%
[9]
  viability, T/C: 100%
[10]
  viability, T/C: 103%
[11]
  viability, T/C: 57.2%
[12]
  viability, T/C: 21.4%
[13]
  viability, T/C: 96.8%
[14]
  viability, T/C: 102%
[15]
  viability, T/C: 93.6%
[16]
  viability, T/C: 94.4%
[17]
  viability, T/C: 40.1%
[18]
  viability, T/C: 23.7%
[19]
  viability, T/C: 98.8%
[20]
  viability, T/C: 84.4%
[21]
  viability, T/C: 80.3%
[22]
  viability, T/C: 55.7%
[23]
  viability, T/C: 39.6%
[24]
  viability, T/C: 18.5%
[25]
  viability, T/C: 38.3%
[26]
  viability, T/C: 37.1%
[27]
  viability, T/C: 33.3%
[28]
  viability, T/C: 30.3%
[29]
  viability, T/C: 28.2%
[30]
  viability, T/C: 17%
[31]
  viability, T/C: 24.8%
[32]
  viability, T/C: 21.8%
[33]
  viability, T/C: 22.1%
[34]
  viability, T/C: 20.9%
[35]
  viability, T/C: 20.7%
[36]
  viability, T/C: 14.1%

## CCN1CCN(Cc2ccc(Nc3ncc(F)c(-c4cc(F)c5nc(C)n(C(C)C)c5c4)n3)nc2)CC1 + COc1c(OCCCN2CCOCC2)ccc2c3n(c(=NC(=O)c4cnc(N)nc4)nc12)CCN3
Second compound 0.00316 µM
  IC50: > 1 µM
Second compound 0.01 µM
  IC50: > 1 µM
Second compound 0.0316 µM
  IC50: > 1 µM
Second compound 0.1 µM
  IC50: 0.185 µM
Second compound 0.316 µM
  IC50: < 0.00316 µM
Second compound 1 µM
  IC50: < 0.00316 µM
Second compound 0.00316 µM, first compound 0.00316 µM
  viability, T/C: 80.7%
Second compound 0.00316 µM, first compound 0.01 µM
  viability, T/C: 104%
[1]
  viability, T/C: 100%
[2]
  viability, T/C: 97.3%
[3]
  viability, T/C: 128%
[4]
  viability, T/C: 90.8%
Second compound 0.01 µM, first compound 0.00316 µM
  viability, T/C: 89.5%
Second compound 0.01 µM, first compound 0.01 µM
  viability, T/C: 105%
[7]
  viability, T/C: 104%
[8]
  viability, T/C: 118%
[9]
  viability, T/C: 138%
[10]
  viability, T/C: 87.6%
Second compound 0.0316 µM, first compound 0.00316 µM
  viability, T/C: 108%
Second compound 0.0316 µM, first compound 0.01 µM
  viability, T/C: 109%
[13]
  viability, T/C: 103%
[14]
  viability, T/C: 106%
[15]
  viability, T/C: 112%
[16]
  viability, T/C: 55.9%
Second compound 0.1 µM, first compound 0.00316 µM
  viability, T/C: 87.8%
Second compound 0.1 µM, first compound 0.01 µM
  viability, T/C: 80.3%
[19]
  viability, T/C: 64.9%
[20]
  viability, T/C: 54.9%
[21]
  viability, T/C: 47.1%
[22]
  viability, T/C: 34.7%
Second compound 0.316 µM, first compound 0.00316 µM
  viability, T/C: 36.1%
Second compound 0.316 µM, first compound 0.01 µM
  viability, T/C: 33.8%
[25]
  viability, T/C: 33%
[26]
  viability, T/C: 40.7%
[27]
  viability, T/C: 33.4%
[28]
  viability, T/C: 32%
Second compound 1 µM, first compound 0.00316 µM
  viability, T/C: 22.3%
Second compound 1 µM, first compound 0.01 µM
  viability, T/C: 23.4%
[31]
  viability, T/C: 20.6%
[32]
  viability, T/C: 24.6%
[33]
  viability, T/C: 27.2%
[34]
  viability, T/C: 31.1%

## Cn1ncc(Cl)c1-c1cc(C(=O)NC(CN)Cc2cccc(F)c2)sc1Cl (stereo not given) + COc1c(OCCCN2CCOCC2)ccc2c3n(c(=NC(=O)c4cnc(N)nc4)nc12)CCN3
Second compound 0.00316 µM
  IC50: 2.98 µM
Second compound 0.01 µM
  IC50: 2.96 µM
Second compound 0.0316 µM
  IC50: 2.49 µM
Second compound 0.1 µM
  IC50: 1.89 µM
Second compound 0.316 µM
  IC50: < 0.0316 µM
Second compound 1 µM
  IC50: < 0.0316 µM
[1]
  viability, T/C: 95.1%
[2]
  viability, T/C: 90.2%
[3]
  viability, T/C: 91.7%
[4]
  viability, T/C: 99.6%
[5]
  viability, T/C: 47.6%
[6]
  viability, T/C: 16.6%
[7]
  viability, T/C: 108%
[8]
  viability, T/C: 96.3%
[9]
  viability, T/C: 94.6%
[10]
  viability, T/C: 92.9%
[11]
  viability, T/C: 47.3%
[12]
  viability, T/C: 17.6%
[13]
  viability, T/C: 102%
[14]
  viability, T/C: 104%
[15]
  viability, T/C: 96.7%
[16]
  viability, T/C: 75.2%
[17]
  viability, T/C: 43.9%
[18]
  viability, T/C: 15.1%
[19]
  viability, T/C: 90.8%
[20]
  viability, T/C: 86.8%
[21]
  viability, T/C: 79.7%
[22]
  viability, T/C: 72.8%
[23]
  viability, T/C: 32.2%
[24]
  viability, T/C: 12.9%
[25]
  viability, T/C: 45%
[26]
  viability, T/C: 35%
[27]
  viability, T/C: 35.5%
[28]
  viability, T/C: 32%
[29]
  viability, T/C: 27.2%
[30]
  viability, T/C: 15.3%
[31]
  viability, T/C: 21.4%
[32]
  viability, T/C: 28.2%
[33]
  viability, T/C: 16.9%
[34]
  viability, T/C: 20.9%
[35]
  viability, T/C: 16.6%
[36]
  viability, T/C: 7.24%

## Cn1nccc1Nc1nccc(-c2ccn(C(CO)c3ccc(Cl)c(F)c3)c(=O)c2)n1 (stereo not given) + COc1c(OCCCN2CCOCC2)ccc2c3n(c(=NC(=O)c4cnc(N)nc4)nc12)CCN3
Second compound 0.00316 µM
  IC50: 3.28 µM
Second compound 0.01 µM
  IC50: 1.11 µM
Second compound 0.0316 µM
  IC50: 0.659 µM
Second compound 0.1 µM
  IC50: 0.412 µM
Second compound 0.316 µM
  IC50: < 0.0316 µM
Second compound 1 µM
  IC50: < 0.0316 µM
[1]
  viability, T/C: 99.7%
[2]
  viability, T/C: 94.4%
[3]
  viability, T/C: 76.8%
[4]
  viability, T/C: 67.7%
[5]
  viability, T/C: 48.5%
[6]
  viability, T/C: 40.7%
[7]
  viability, T/C: 96.7%
[8]
  viability, T/C: 102%
[9]
  viability, T/C: 81.2%
[10]
  viability, T/C: 49.8%
[11]
  viability, T/C: 42.4%
[12]
  viability, T/C: 28.8%
[13]
  viability, T/C: 94.1%
[14]
  viability, T/C: 92.8%
[15]
  viability, T/C: 59.6%
[16]
  viability, T/C: 42.2%
[17]
  viability, T/C: 25.6%
[18]
  viability, T/C: 10.7%
[19]
  viability, T/C: 92.4%
[20]
  viability, T/C: 83.8%
[21]
  viability, T/C: 46.6%
[22]
  viability, T/C: 37.5%
[23]
  viability, T/C: 13.9%
[24]
  viability, T/C: 0.2%
[25]
  viability, T/C: 38%
[26]
  viability, T/C: 38.6%
[27]
  viability, T/C: 22.6%
[28]
  viability, T/C: 13.2%
[29]
  viability, T/C: 1.77%
[30]
  viability, T/C: 0.14%
[31]
  viability, T/C: 19.6%
[32]
  viability, T/C: 11.4%
[33]
  viability, T/C: 4.09%
[34]
  viability, T/C: 0.93%
[35]
  viability, T/C: 0.9%
[36]
  viability, T/C: 0.16%
